Here are results for 14 molecules from US12606541B2, “PPARg modulators and methods of use” (Eisai R&D Management Co., Ltd., priority 2020, dated 2026).

One assay concerns the target T1, His6-TEV-PPARγ-(234-505) (Homo sapiens, UniProt P37231).
T1 construct: The His6-TEV-PPARγ-(234-505) protein for assay was expressed and purified; TEV cleavage site (N); made in house
T1 sequence (P37231 234-505): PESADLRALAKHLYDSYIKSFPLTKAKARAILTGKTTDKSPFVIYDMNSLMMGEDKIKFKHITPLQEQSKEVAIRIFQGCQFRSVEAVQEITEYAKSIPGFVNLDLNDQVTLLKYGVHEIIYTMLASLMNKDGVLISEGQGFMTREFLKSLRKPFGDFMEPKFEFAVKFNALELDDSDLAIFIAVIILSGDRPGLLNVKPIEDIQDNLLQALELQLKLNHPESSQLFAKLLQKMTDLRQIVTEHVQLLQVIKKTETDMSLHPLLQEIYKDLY
The assay is described as follows: TR-FRET Assay to Measure Co-R Peptide Recruitment to PPARγ. The following applies: Co-R peptide (SMRT-ID2) recruitment; top final concentration 20 μM; read-out: TR-FRET i-Ag; AC50. The format is biochemical. In outline:
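Corepressor recruitment is measured by adding terbium-labeled anti-His antibody and FITC SMRT-ID2 peptide, at 5 and 200 nM final, after a 20-minute room-temperature protein–compound incubation. After one further hour, signal is converted to percent response between DMSO and 500 nM T0070907 wells.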
(Time-resolved FRET reads energy transfer from a long-lived donor to a nearby acceptor.)

In another assay the test system is UM-UC-9 engineered cells. As to the kind of experiment: Cell proliferation / short-term viability assay, CellTiter-Glo 144 h. The format is cell-based, human. The following applies: read-out: CTGlo 144 h UMUC9.5, G150. In a few lines:
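Viability read by CellTiter-Glo 2.0 luminescence at day 7 versus DMSO-vehicle wells and a T0 plate measured on day 0. Cells: UM-UC-9 engineered assay-ready stocks, 500 cells/well in high-glucose DMEM with 10% FBS, 37° C, 5% CO2.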
In general terms: Cellular ATP, detected with luciferase, serves as a proxy for viable cell number.

Some results are limits rather than exact numbers.

With `COc1cc(-c2cc(C(=O)N3CCC(C(=O)NCc4ncc(N5CCNC6CC65)cn4)CC34CC4)n[nH]2)c(F)cn1` (mixture of isomers) [Example 469, (S)—N-((5-((1S,6R)-2,5-diazabicyclo[4.1.0]heptan-2-yl)pyrimidin-2-yl)methyl)-4-(3-(5-fluoro-2-methoxypyridin-4-yl)-1H-pyrazole-5-carbonyl)-4-azaspiro[2.5]octane-7-carboxamide and (S)—N-((5-((1R,6S)-2,5-diazabicyclo[4.1.0]heptan-2-yl)pyrimidin-2-yl)methyl)-4-(3-(5-fluoro-2-methoxypyridin-4-yl)-1H-pyrazole-5-carbonyl)-4-azaspiro[2.5]octane-7-carboxamide], the AC50 at His6-TEV-PPARγ-(234-505) turned out to be 78.5 nM. Moreover, the IC50 in the assay with UM-UC-9 engineered cells amounted to 9020 nM.

For the molecule `COc1cc(-c2cc(C(=O)N3CCC(C(=O)NC4CN(CC5(O)CC5)CC4(F)F)CC34CC4)n[nH]2)c(F)cn1` (mixture of isomers) [Example 470, (S)—N—((R)-4,4-difluoro-1-((1-hydroxycyclopropyl)methyl)pyrrolidin-3-yl)-4-(3-(5-fluoro-2-methoxypyridin-4-yl)-1-pyrazole-5-carbonyl)-4-azaspiro[2.5]octane-7-carboxamide and (S)—N—((S)-4,4-difluoro-1-((1-hydroxycyclopropyl)methyl)pyrrolidin-3-yl)-4-(3-(5-fluoro-2-methoxypyridin-4-yl)-1H-pyrazole-5-carbonyl)-4-azaspiro[2.5]octane-7-carboxamide], the AC50 at His6-TEV-PPARγ-(234-505) amounted to 112 nM. Besides, the IC50 in the assay with UM-UC-9 engineered cells was 897 nM.

`COc1cc(-c2cc(C(=O)N3CCC(C(=O)NC4CCN(c5ncc(C#N)cn5)C4)CC34CC4)n[nH]2)c(F)cn1` (mixture of isomers) [Example 472, (S)—N—((R)-1-(5-cyanopyrimidin-2-yl)pyrrolidin-3-yl)-4-(5-(5-fluoro-2-methoxypyridin-4-yl)-1H-pyrazole-3-carbonyl)-4-azaspiro[2.5]octane-7-carboxamide and (S)—N—((S)-1-(5-cyanopyrimidin-2-yl)pyrrolidin-3-yl)-4-(5-(5-fluoro-2-methoxypyridin-4-yl)-1H-pyrazole-3-carbonyl)-4-azaspiro[2.5]octane-7-carboxamide]: the AC50 on His6-TEV-PPARγ-(234-505) is 2.9 nM. In the assay on UM-UC-9 engineered cells, the IC50 is 24.2 nM.

Consider `COc1cc(-c2cc(C(=O)N3CCC(C(=O)NC4CCC(O)(C(F)(F)F)C(O)C4)CC34CC4)n[nH]2)c(F)cn1` (mixture of isomers) [Example 474-A], for which, on His6-TEV-PPARγ-(234-505), the AC50 was 336 nM. Further, the IC50 in the assay on UM-UC-9 engineered cells was 6210 nM.

Take `COc1cc(-c2cc(C(=O)N3CCC(C(=O)NC4CCC(O)(C(F)(F)F)C(O)C4)CC34CC4)n[nH]2)c(F)cn1` (mixture of isomers) [Example 474-B]: the AC50 on His6-TEV-PPARγ-(234-505) worked out at 4.6 nM. In the assay on UM-UC-9 engineered cells, the IC50 was 50.6 nM.

As for `CC(O)c1cc(-c2cc(C(=O)N3CCC(C(=O)NCc4ncc(F)cc4Cl)CC34CC4)n[nH]2)c(F)cn1` (mixture of isomers) [Example 478], the AC50 at His6-TEV-PPARγ-(234-505) stood at 38.8 nM. Further, the IC50 in the assay on UM-UC-9 engineered cells turned out to be 415 nM.

In the case of `COc1cc(-c2cc(C(=O)N3CCC(C(=O)NC4CCCn5ccnc54)CC34CC4)n[nH]2)c(F)cn1` (mixture of isomers) [Example 479, (S)-4-(5-(5-fluoro-2-methoxypyridin-4-yl)-1H-pyrazole-3-carbonyl)-N—((R)-5,6,7,8-tetrahydroimidazo[1,2-a]pyridin-8-yl)-4-azaspiro[2.5]octane-7-carboxamide and (S)-4-(5-(5-fluoro-2-methoxypyridin-4-yl)-1H-pyrazole-3-carbonyl)-N—((S)-5,6,7,8-tetrahydroimidazo[1,2-a]pyridin-8-yl)-4-azaspiro[2.5]octane-7-carboxamide], the AC50 on His6-TEV-PPARγ-(234-505) was 132 nM. The IC50 in the assay on UM-UC-9 engineered cells was 1470 nM.

Turning to `COc1cc(-c2cc(C(=O)N3CCC(C(=O)NCc4nccnc4C4CC4CO)CC34CC4)n[nH]2)c(F)cn1` (mixture of isomers) [Example 481, (S)-4-(5-(5-fluoro-2-methoxypyridin-4-yl)-1H-pyrazole-3-carbonyl)-N-((3-((1S,2S)-2-(hydroxymethyl)cyclopropyl)pyrazin-2-yl)methyl)-4-azaspiro[2.5]octane-7-carboxamide and (S)-4-(5-(5-fluoro-2-methoxypyridin-4-yl)-1H-pyrazole-3-carbonyl)-N-((3-((1R,2R)-2-(hydroxymethyl)cyclopropyl)pyrazin-2-yl)methyl)-4-azaspiro[2.5]octane-7-carboxamide], at His6-TEV-PPARγ-(234-505), the AC50 was found to be 129 nM. For the same molecule, the IC50 with UM-UC-9 engineered cells stood at 1220 nM.

For `COc1cc(-c2cc(C(=O)N3CCC(C(=O)NC4CCN(c5ccc(C#N)cn5)C4)CC34CC4)n[nH]2)c(F)cn1` (mixture of isomers) [Example 489, (S)—N—((R)-1-(5-cyanopyridin-2-yl)pyrrolidin-3-yl)-4-(5-(5-fluoro-2-methoxypyridin-4-yl)-1H-pyrazole-3-carbonyl)-4-azaspiro[2.5]octane-7-carboxamide and (S)—N—((S)-1-(5-cyanopyridin-2-yl)pyrrolidin-3-yl)-4-(5-(5-fluoro-2-methoxypyridin-4-yl)-1H-pyrazole-3-carbonyl)-4-azaspiro[2.5]octane-7-carboxamide], the AC50 at His6-TEV-PPARγ-(234-505) was found to be 0.7 nM. In the assay with UM-UC-9 engineered cells, the IC50 worked out at 5.5 nM.

Regarding `COc1cc(-c2cc(C(=O)N3CCC(C(=O)NC4CN(c5cnc(C)cn5)CC4(F)F)CC34CC4)n[nH]2)c(F)cn1` (mixture of isomers) [Example 490, (S)—N—((S)-4,4-difluoro-1-(5-methylpyrazin-2-yl)pyrrolidin-3-yl)-4-(5-(5-fluoro-2-methoxypyridin-4-yl)-1H-pyrazole-3-carbonyl)-4-azaspiro[2.5]octane-7-carboxamide and (S)—N—((R)-4,4-difluoro-1-(5-methylpyrazin-2-yl)pyrrolidin-3-yl)-4-(5-(5-fluoro-2-methoxypyridin-4-yl)-1H-pyrazole-3-carbonyl)-4-azaspiro[2.5]octane-7-carboxamide], the AC50 at His6-TEV-PPARγ-(234-505) worked out at 1.9 nM. Besides, the IC50 in the assay on UM-UC-9 engineered cells was found to be 17.3 nM.

As for `COc1cc(-c2cc(C(=O)N3CCC(C(=O)NC4CCCn5c(C)nnc54)CC34CC4)n[nH]2)c(F)cn1` (mixture of isomers) [Example 492, (S)-4-(5-(5-fluoro-2-methoxypyridin-4-yl)-1H-pyrazole-3-carbonyl)-N—((S)-3-methyl-5,6,7,8-tetrahydro-[1,2,4]triazolo[4,3-a]pyridin-8-yl)-4-azaspiro[2.5]octane-7-carboxamide and (S)-4-(5-(5-fluoro-2-methoxypyridin-4-yl)-1H-pyrazole-3-carbonyl)-N—((R)-3-methyl-5,6,7,8-tetrahydro-[1,2,4]triazolo[4,3-a]pyridin-8-yl)-4-azaspiro[2.5]octane-7-carboxamide], on His6-TEV-PPARγ-(234-505), the AC50 amounted to 454 nM. The IC50 with UM-UC-9 engineered cells was over 10000 nM.

Regarding `COc1cc(-c2cc(C(=O)N3CCC(C(=O)Nc4cnn5cc(C(C)O)ccc45)CC34CC4)n[nH]2)c(F)cn1` (mixture of isomers) [Example 495, (S)-4-(5-(5-fluoro-2-methoxypyridin-4-yl)-1H-pyrazole-3-carbonyl)-N-(6-((S)-1-hydroxyethyl)pyrazolo[1,5-a]pyridin-3-yl)-4-azaspiro[2.5]octane-7-carboxamide and (S)-4-(5-(5-fluoro-2-methoxypyridin-4-yl)-1H-pyrazole-3-carbonyl)-N-(6-((R)-1-hydroxyethyl)pyrazolo[1,5-a]pyridin-3-yl)-4-azaspiro[2.5]octane-7-carboxamide], on His6-TEV-PPARγ-(234-505), the AC50 amounted to 15.7 nM. Moreover, the IC50 with UM-UC-9 engineered cells came to 186 nM.

On to `COc1cc(-c2cc(C(=O)N3CCC(C(=O)NC4CCC(C(F)(F)F)C(O)C4)CC34CC4)n[nH]2)c(F)cn1` (mixture of isomers) [Example 501, (S)-4-(5-(5-fluoro-2-methoxypyridin-4-yl)-1H-pyrazole-3-carbonyl)-N-((1R,3R,4S)-3-hydroxy-4-(trifluoromethyl)cyclohexyl)-4-azaspiro[2.5]octane-7-carboxamide and (S)-4-(5-(5-fluoro-2-methoxypyridin-4-yl)-1H-pyrazole-3-carbonyl)-N-((1S,3S,4R)-3-hydroxy-4-(trifluoromethyl)cyclohexyl)-4-azaspiro[2.5]octane-7-carboxamide], for which the AC50 on His6-TEV-PPARγ-(234-505) is 5.4 nM. In addition, the IC50 with UM-UC-9 engineered cells amounted to 13 nM.

For `COc1cc(-c2cc(C(=O)N3CCC(C(=O)NC4CCCn5cc(C(F)(F)F)nc54)CC34CC4)n[nH]2)c(F)cn1` (mixture of isomers) [Example 502, (S)-4-(5-(5-fluoro-2-methoxypyridin-4-yl)-1H-pyrazole-3-carbonyl)-N—((S)-2-(trifluoromethyl)-5,6,7,8-tetrahydroimidazo[1,2-a]pyridin-8-yl)-4-azaspiro[2.5]octane-7-carboxamide and (S)-4-(5-(5-fluoro-2-methoxypyridin-4-yl)-1H-pyrazole-3-carbonyl)-N—((R)-2-(trifluoromethyl)-5,6,7,8-tetrahydroimidazo[1,2-a]pyridin-8-yl)-4-azaspiro[2.5]octane-7-carboxamide], the AC50 at His6-TEV-PPARγ-(234-505) was 11.8 nM. Moreover, the IC50 with UM-UC-9 engineered cells amounted to 50.6 nM.
